Active and inactive are the calls of the source.
Experiments:
[1] = target: T1, Inhibitor of NF-kappa-B kinase (IKK) (Homo sapiens) (UniProt O14920+O15111+Q9Y6K9); assay: Inhibition of IKK in human MDA-MB-231 cells assessed as inhibition of TNF-alpha-induced IkappaB phosphorylation at Ser-32 residue at 5 and 10 uM pretreated for 30 mins followed by addition of TNF-alpha for 1 hr by immunoblot analysis; type: cell-based
[2] = target: T1, Inhibitor of NF-kappa-B kinase (IKK) (Homo sapiens); assay: Inhibition of IKK in human MDA-MB-231 cells assessed as decrease in TNF-alpha-induced GROalpha mRNA level pretreated with compound for 30 mins followed by addition of TNF-alpha measured after 12 hrs by RT-PCR analysis; type: cell-based
[3] = target: T1, Inhibitor of NF-kappa-B kinase (IKK) (Homo sapiens); assay: Inhibition of IKK in human MDA-MB-231 cells assessed as inhibition of TNF-alpha-induced GROalpha promoter activation pretreated with compound for 30 mins followed by addition of TNF-alpha for 8 hrs by luciferase reporter gene assay; type: cell-based
MDA-MB-231 [4] = assay: Inhibition of TNF-alpha-induced cell invasion in human MDA-MB-231 cells at 10 uM pretreated for 30 mins followed by addition of TNF-alpha measured after 24 hrs by matrigel invasion assay; type: functional, cell-based
[5] = target: T1, Inhibitor of NF-kappa-B kinase (IKK) (Homo sapiens); assay: Inhibition of IKK in human MDA-MB-231 cells assessed as decrease in TNF-alpha-induced GROalpha mRNA level pretreated with compound for 30 mins followed by addition of TNF-alpha measured after 12 hrs by QR-PCR analysis; type: cell-based
[6] = target: T1, Inhibitor of NF-kappa-B kinase (IKK) (Homo sapiens); assay: Inhibition of IKK in human MDA-MB-231 cells assessed as inhibition of TNF-alpha-induced p65/RelA phosphorylation at Ser-536 residue in nucleus at 10 uM pretreated for 30 mins followed by addition of TNF-alpha for 1 hr by immunofluorescence analysis; type: cell-based
MDA-MB-231 [7] = assay: Inhibition of TNF-alpha-induced cell motility in human MDA-MB-231 cells assessed as lamellipodium projection at 10 uM pretreated for 30 mins followed by addition of TNF-alpha measured after 10 mins by rhodamine- phalloidin staining based assay; type: functional
[8] = target: T1, Inhibitor of NF-kappa-B kinase (IKK) (Homo sapiens); assay: Inhibition of IKK in human MDA-MB-231 cells assessed as inhibition of TNF-alpha-induced p65/RelA phosphorylation at Ser-536 residue at 5 and 10 uM pretreated for 30 mins followed by addition of TNF-alpha for 1 hr by immunoblot analysis; type: cell-based
[9] = target: T1, Inhibitor of NF-kappa-B kinase (IKK) (Homo sapiens); assay: Inhibition of IKK in human MDA-MB-231 cells assessed as inhibition of TNF-alpha-induced NF-kappaB transcriptional activity pretreated with compound for 30 mins followed by addition of TNF-alpha for 8 hrs by luciferase reporter gene assay; type: cell-based
[10] = target: T1, Inhibitor of NF-kappa-B kinase (IKK) (Homo sapiens); assay: Inhibition of IKK in human MDA-MB-231 cells assessed as decrease in TNF-alpha-induced GROalpha mRNA level at 10 uM pretreated for 30 mins followed by addition of TNF-alpha measured after 12 hrs by QR-PCR analysis; type: cell-based
MDA-MB-231 [11] = assay: Inhibition of TNF-alpha-induced cell invasion in human MDA-MB-231 cells assessed as decrease in spindle-like protrusions at 10 uM pretreated for 30 mins followed by addition of TNF-alpha by microscopic analysis; type: functional, cell-based
[12] = target: T2, Inhibitor of nuclear factor kappa-B kinase subunit alpha (Homo sapiens) (UniProt O15111); assay: Inhibition of TNF-alpha-induced IKK-alpha phosphorylation in human MDA-MB-231 cells at Ser176 residue at 5 and 10 uM pretreated for 30 mins followed by addition of TNF-alpha for 1 hr by immunoblot analysis; type: cell-based
T2 sequence (whole entry): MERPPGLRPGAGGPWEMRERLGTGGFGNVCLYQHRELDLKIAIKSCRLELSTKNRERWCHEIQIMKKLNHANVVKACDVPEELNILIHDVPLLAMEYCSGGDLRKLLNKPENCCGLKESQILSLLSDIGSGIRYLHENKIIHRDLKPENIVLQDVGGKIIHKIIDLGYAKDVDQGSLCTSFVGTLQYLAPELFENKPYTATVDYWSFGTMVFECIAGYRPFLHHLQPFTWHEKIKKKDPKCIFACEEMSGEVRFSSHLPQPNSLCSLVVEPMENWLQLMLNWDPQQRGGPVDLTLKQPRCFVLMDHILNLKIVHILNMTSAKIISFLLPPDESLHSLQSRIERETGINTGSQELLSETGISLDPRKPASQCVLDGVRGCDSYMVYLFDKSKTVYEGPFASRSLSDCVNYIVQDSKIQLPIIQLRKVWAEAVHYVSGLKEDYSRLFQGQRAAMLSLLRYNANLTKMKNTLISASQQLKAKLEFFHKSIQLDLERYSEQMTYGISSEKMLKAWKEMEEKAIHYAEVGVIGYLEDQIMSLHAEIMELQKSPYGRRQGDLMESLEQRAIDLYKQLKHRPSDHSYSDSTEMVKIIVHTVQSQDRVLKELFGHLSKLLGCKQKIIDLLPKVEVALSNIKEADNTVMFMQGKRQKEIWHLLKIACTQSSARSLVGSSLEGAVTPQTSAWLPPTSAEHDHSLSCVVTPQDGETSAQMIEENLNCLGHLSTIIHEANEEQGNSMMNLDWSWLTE

MDA-MB-231 [13] = assay: Inhibition of TNF-alpha-induced cell migration in human MDA-MB-231 cells at 10 uM pretreated for 30 mins followed by addition of TNF-alpha measured after 6 hrs by scratch wound healing assay; type: functional, cell-based
[14] = target: T3, Inhibitor of nuclear factor kappa-B kinase subunit beta (Homo sapiens) (UniProt O14920); assay: Inhibition of TNF-alpha-induced IKK-beta phosphorylation at Ser180 residue in human MDA-MB-231 cells at 5 and 10 uM pretreated for 30 mins followed by addition of TNF-alpha for 1 hr by immunoblot analysis; type: cell-based
T3 sequence (whole entry): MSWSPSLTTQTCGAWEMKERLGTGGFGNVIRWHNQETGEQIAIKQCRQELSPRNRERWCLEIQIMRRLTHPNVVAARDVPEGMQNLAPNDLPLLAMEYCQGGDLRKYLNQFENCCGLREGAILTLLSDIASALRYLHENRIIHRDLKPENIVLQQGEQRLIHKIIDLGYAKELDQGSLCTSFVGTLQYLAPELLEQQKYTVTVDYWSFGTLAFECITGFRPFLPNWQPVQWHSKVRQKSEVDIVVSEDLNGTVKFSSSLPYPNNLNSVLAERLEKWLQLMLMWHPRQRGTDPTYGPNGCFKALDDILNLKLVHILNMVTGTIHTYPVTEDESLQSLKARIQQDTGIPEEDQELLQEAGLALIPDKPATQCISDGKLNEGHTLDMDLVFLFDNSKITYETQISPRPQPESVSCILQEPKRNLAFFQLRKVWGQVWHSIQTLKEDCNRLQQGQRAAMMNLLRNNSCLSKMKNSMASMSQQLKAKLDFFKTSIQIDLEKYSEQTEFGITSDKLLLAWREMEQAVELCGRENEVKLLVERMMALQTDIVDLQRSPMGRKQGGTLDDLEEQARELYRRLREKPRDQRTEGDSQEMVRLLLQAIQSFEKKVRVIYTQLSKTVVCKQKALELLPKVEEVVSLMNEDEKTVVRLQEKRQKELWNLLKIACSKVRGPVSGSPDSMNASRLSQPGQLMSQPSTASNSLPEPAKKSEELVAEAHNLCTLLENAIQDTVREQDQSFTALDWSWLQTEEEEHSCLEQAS

COc1cc(/C=C/C(=O)c2cc(OC)ccc2O)cc(OC)c1
4.1: fold change (FC) [10]
active: inhibition [1] | inhibition [2] Dose-dependent effect | inhibition [3] Dose-dependent effect | inhibition (MDA-MB-231 [4]) | inhibition [5] Dose-dependent effect | inhibition [6] | inhibition (MDA-MB-231 [7]) | inhibition [8] | inhibition [9] Dose-dependent effect | inhibition (MDA-MB-231 [11]) | inhibition [12] | inhibition (MDA-MB-231 [13]) | inhibition [14]

— ChEMBL document CHEMBL3739305, “A synthetic chalcone derivative, 2-hydroxy-3',5,5'-trimethoxychalcone (DK-139), suppresses the TNFα-induced invasive capability of MDA-MB-231 human breast cancer cells by inhibiting NF-κB-mediated GROα expression” (Bioorg Med Chem Lett, 2016)
